The target of one experiment is hHDAC6 (Homo sapiens (Human), UniProt Q9UBN7). Briefly: HDAC6 inhibition protocol. The settings on record: read-out: IC50 (nM) of enzyme activity HDAC6.
A further experiment addresses hHDAC1 (Homo sapiens (Human), UniProt Q13547). Briefly: hHDAC1 inhibition protocol. The settings on record: read-out: IC50 (nM) of enzyme activity HDAC1; selectivity table.
In the next experiment the target is hHDAC10 (Homo sapiens (Human), UniProt Q969S8). Briefly: HDAC10 inhibition protocol. The note with it: read-out: IC50 (nM) of enzyme activity HDAC10; selectivity table.
In the next experiment the target is hHDAC4 (Homo sapiens (Human), UniProt P56524). Briefly: hHDAC4 inhibition protocol. The note with it: read-out: IC50 (nM) of enzyme activity HDAC4; selectivity table.
For the next experiment, the target named is hHDAC9 (Homo sapiens (Human), UniProt Q9UKV0). Briefly: hHDAC9 inhibition protocol. The settings on record: read-out: IC50 (nM) of enzyme activity HDAC9; selectivity table.
The target in the next experiment is hHDAC8 (Homo sapiens (Human), UniProt Q9BY41). Briefly: hHDAC8 inhibition protocol. The settings on record: read-out: IC50 (nM) of enzyme activity HDAC8; selectivity table.
In the next experiment the target is hHDAC7 (Homo sapiens (Human), UniProt Q8WUI4). Briefly: hHDAC7 inhibition protocol. The note with it: read-out: IC50 (nM) of enzyme activity HDAC7; selectivity table.
Another experiment deals with hHDAC3 (Homo sapiens (Human), UniProt O15379). Briefly: hHDAC3 inhibition protocol. The settings on record: read-out: IC50 (nM) of enzyme activity HDAC3; selectivity table.
Another experiment deals with hHDAC2 (Homo sapiens (Human), UniProt Q92769). Briefly: hHDAC2 inhibition protocol. The note with it: read-out: IC50 (nM) of enzyme activity HDAC2; selectivity table.
The next experiment deals with hHDAC5 (Homo sapiens (Human), UniProt Q9UQL6). Briefly: hHDAC5 inhibition protocol. The note with it: read-out: IC50 (nM) of enzyme activity HDAC5; selectivity table.
Where [1] appears, read: hHDAC6 1.20 nM, Acetylated Peptide A 2 μM, 1 hour at RT.

Read-outs that look alike come from different tables or passages of the source.

A word on the IC50: it is the midpoint of a concentration-inhibition curve.

hHDAC9, sequence (Q9UKV0 whole entry): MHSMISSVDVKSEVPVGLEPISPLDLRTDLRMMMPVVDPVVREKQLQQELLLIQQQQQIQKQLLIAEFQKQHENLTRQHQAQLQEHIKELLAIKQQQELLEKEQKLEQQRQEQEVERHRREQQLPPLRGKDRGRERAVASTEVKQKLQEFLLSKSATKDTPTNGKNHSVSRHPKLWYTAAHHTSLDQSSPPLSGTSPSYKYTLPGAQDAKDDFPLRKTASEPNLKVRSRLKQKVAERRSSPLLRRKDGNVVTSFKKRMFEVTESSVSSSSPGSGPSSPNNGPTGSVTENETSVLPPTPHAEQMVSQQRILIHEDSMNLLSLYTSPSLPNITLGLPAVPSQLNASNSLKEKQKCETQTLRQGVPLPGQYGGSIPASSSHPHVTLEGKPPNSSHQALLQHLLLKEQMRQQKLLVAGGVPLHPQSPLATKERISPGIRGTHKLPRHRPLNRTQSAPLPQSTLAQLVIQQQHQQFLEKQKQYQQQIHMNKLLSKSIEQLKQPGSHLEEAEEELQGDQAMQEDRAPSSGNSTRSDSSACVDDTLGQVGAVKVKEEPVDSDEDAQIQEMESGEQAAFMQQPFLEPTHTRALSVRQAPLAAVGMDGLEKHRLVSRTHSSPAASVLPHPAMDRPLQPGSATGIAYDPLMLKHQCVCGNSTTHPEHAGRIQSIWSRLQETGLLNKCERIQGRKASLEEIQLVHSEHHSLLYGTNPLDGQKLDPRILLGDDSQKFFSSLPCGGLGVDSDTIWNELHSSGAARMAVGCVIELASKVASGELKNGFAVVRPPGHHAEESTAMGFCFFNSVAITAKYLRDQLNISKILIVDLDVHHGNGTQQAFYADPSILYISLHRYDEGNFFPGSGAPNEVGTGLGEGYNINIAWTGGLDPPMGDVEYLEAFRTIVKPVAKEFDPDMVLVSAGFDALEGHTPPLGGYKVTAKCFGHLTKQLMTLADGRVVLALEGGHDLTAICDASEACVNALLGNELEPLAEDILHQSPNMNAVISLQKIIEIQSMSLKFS
hHDAC3, sequence (O15379 whole entry): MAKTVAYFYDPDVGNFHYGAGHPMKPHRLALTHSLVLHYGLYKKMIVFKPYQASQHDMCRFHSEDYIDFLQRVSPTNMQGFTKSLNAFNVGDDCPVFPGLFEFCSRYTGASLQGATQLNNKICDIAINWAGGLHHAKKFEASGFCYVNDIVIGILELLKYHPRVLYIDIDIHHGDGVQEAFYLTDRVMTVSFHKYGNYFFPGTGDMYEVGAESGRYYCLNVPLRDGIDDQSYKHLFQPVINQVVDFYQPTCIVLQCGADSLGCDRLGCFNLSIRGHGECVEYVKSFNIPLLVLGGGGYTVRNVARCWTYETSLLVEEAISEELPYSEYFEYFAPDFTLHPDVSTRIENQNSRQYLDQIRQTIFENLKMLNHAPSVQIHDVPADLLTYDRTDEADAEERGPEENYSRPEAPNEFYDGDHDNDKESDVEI
hHDAC3, sequence (Q9Y618 395-489 partner): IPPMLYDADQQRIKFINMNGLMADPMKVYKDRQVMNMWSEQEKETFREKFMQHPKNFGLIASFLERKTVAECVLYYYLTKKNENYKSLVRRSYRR
hHDAC4, sequence (P56524 whole entry): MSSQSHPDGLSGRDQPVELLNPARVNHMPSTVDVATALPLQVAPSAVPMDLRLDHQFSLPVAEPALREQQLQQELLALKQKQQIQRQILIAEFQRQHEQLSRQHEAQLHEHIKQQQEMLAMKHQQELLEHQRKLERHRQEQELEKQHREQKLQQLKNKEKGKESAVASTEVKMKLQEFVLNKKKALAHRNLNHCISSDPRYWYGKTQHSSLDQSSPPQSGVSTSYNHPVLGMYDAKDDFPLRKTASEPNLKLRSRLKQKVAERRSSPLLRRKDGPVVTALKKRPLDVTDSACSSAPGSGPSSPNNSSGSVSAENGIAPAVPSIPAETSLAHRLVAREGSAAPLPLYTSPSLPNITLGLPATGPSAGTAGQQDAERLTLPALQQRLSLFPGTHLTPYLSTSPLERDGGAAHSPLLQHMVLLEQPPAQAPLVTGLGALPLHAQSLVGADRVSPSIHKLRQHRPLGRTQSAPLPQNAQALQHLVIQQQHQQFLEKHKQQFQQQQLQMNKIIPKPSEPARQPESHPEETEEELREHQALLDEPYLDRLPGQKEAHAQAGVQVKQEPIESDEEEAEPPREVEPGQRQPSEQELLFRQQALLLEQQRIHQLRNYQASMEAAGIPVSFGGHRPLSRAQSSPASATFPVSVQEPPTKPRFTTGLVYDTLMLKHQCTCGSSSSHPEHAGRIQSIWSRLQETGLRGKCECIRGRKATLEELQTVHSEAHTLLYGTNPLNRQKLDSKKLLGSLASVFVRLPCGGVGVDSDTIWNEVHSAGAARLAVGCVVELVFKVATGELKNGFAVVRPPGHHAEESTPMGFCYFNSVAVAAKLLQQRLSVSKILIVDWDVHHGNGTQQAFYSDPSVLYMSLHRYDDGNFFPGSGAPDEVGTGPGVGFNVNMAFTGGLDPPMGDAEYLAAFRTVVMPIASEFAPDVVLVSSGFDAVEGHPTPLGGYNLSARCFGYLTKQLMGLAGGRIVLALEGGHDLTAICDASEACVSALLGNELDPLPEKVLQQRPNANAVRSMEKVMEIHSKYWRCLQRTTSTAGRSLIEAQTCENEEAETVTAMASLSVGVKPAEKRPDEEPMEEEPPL
hHDAC6, sequence (Q9UBN7 whole entry): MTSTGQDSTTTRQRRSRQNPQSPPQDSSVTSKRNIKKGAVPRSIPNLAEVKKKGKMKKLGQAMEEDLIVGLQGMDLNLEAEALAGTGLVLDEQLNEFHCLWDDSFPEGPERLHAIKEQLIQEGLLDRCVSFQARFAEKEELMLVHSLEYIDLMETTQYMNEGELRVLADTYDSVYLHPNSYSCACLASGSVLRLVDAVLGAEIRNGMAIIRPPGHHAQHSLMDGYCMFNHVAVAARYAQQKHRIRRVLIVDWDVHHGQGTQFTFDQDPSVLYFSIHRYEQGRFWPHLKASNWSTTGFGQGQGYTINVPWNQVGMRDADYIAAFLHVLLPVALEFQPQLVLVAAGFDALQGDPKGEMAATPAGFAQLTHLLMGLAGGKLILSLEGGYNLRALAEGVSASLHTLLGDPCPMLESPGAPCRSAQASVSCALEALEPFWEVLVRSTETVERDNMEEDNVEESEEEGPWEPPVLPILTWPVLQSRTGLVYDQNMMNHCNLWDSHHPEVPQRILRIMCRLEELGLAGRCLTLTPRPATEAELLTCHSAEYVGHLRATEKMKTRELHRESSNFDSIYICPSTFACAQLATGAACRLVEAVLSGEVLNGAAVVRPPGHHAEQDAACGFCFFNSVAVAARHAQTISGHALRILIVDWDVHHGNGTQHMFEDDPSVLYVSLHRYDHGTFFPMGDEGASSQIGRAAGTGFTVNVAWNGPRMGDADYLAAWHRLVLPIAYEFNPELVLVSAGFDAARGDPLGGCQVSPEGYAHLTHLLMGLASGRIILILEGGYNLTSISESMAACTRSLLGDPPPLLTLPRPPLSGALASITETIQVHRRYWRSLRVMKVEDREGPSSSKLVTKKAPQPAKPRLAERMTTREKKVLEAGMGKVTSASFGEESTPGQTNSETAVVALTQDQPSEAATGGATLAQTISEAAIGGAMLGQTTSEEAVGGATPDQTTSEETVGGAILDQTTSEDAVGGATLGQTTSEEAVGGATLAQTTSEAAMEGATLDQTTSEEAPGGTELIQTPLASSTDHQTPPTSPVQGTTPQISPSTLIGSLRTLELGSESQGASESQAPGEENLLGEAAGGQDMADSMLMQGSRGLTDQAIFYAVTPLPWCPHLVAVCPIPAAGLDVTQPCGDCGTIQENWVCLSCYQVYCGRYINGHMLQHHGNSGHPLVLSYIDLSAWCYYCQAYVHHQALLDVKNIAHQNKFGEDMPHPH
hHDAC10, sequence (Q969S8 whole entry): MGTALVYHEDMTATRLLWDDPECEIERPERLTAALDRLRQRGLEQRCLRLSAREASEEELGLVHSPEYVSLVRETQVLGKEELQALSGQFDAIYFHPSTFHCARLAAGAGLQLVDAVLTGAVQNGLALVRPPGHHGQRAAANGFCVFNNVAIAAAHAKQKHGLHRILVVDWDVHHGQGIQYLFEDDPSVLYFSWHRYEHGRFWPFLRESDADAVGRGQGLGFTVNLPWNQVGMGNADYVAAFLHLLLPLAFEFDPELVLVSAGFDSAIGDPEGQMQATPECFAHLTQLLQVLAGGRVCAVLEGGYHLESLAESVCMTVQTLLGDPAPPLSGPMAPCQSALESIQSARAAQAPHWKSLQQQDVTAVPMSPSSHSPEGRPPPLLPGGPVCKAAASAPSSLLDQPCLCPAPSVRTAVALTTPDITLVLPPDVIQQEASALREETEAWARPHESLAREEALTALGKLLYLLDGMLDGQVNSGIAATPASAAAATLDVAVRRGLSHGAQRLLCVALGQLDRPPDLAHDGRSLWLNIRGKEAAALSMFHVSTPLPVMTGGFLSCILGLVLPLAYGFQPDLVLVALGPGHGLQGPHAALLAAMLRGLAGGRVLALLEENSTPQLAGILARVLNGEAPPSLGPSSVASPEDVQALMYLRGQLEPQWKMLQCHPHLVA
hHDAC1, sequence (Q13547 whole entry): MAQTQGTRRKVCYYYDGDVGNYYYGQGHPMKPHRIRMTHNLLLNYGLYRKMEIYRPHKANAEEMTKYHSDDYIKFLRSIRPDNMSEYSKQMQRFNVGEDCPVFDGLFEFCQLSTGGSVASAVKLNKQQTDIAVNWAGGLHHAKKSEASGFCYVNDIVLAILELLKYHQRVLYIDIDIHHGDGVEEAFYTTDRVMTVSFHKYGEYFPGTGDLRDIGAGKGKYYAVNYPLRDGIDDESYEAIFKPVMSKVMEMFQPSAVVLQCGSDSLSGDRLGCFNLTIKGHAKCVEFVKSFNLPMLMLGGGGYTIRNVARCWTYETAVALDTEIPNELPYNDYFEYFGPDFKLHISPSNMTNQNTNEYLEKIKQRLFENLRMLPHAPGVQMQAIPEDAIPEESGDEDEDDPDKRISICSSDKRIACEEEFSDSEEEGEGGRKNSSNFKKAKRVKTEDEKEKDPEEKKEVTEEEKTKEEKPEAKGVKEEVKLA
Experimental for hHDAC10: (§1) After enzymatic reactions, reaction was stopped by adding 5 μl of 10 μM solution of a known inhibitor. The fluorescent signal of substrate and product was measured by means of microfluidics mobility assay in a EZ Reader II equipment. The percentage of conversion of substrate into product was calculated by the equipment software based on the area of the peaks.
(§2) The percentage of conversion data were analyzed using the computer software, Graphpad Prism. In the absence of the compound, the conversion (Ct) in each data set was defined as 100% activity. In the absence of HDAC, the conversion (Cb) in each data set was defined as 0% activity. The percent activity in the presence of each compound was calculated according to the following equation: % inhibition=(Ct−C)/(Ct−Cb), where C=the percentage of conversion in the presence of the compound.
(§3) The values of % inhibition versus a series of compound concentrations were then plotted using non-linear regression analysis of Sigmoidal dose-response curve generated with the equation Y=B+(T−B)/1+10((Log EC50−X)×Hill Slope), where Y=percent inhibition, B=minimum percent inhibition, T=maximum percent inhibition, X=logarithm of compound and Hill Slope=slope factor or Hill coefficient. The IC50 value was determined by the concentration causing a half-maximal percent activity.
The buffer assay used in the inhibition hHDAC10 assay is: Hepes 50 mM, KCl 100 mM, Tween 20 0.001%, BSA 0.01%; pH=7.4.
Experimental for hHDAC2: as §1, §2, §3
The buffer assay used in the inhibition hHDAC2 assay is: Hepes 50 mM, KCl 100 mM, Tween 20 0.001%, BSA 0.01%; pH=7.4.
Experimental for hHDAC3: as §1, §2, §3
The buffer assay used in the inhibition hHDAC3 assay is: Hepes 50 mM, KCl 100 mM, Tween 20 0.001%, BSA 0.01%; pH=7.4.
Experimental for hHDAC4: as §1, §2, §3
The buffer assay used in the inhibition hHDAC4 assay is: Hepes 50 mM, KCl 100 mM, Tween 20 0.001%, BSA 0.01%; pH=7.4.
Experimental for hHDAC5: as §1, §2, §3
The buffer assay used in the inhibition hHDAC5 assay is: Hepes 50 mM, KCl 100 mM, Tween 20 0.001%, BSA 0.01%; pH=7.4.
Experimental for hHDAC6: as §1, §2, §3
The buffer assay used in the inhibition hHDAC6 assay is: Hepes 50 mM, KCl 100 mM, Tween 20 0.001%, BSA 0.01%; pH=7.4.
Experimental for hHDAC7: The fluorescent signal of substrate and product was measured by means of microfluidics mobility assay in a EZ Reader II equipment. The percentage of conversion of substrate into product was calculated by the equipment software based on the area of the peaks.
as §2, §3
The buffer assay used in the inhibition hHDAC7 assay is: Hepes 50 mM, KCl 100 mM, Tween 20 0.001%, BSA 0.01%; pH=7.4.
Experimental for hHDAC8: as §1, §2, §3
The buffer assay used in the inhibition hHDAC8 assay is: Hepes 50 mM, KCl 100 mM, Tween 20 0.001%, BSA 0.01%; pH=7.4.
Experimental for hHDAC9: as §1, §2, §3
The buffer assay used in the inhibition hHDAC9 assay is: Hepes 50 mM, KCl 100 mM, Tween 20 0.001%, BSA 0.01%; pH=7.4.

`FC(F)c1nnc(-c2ccc(Cn3cc(-c4ccccc4)nn3)cc2)o1` [Example 27, 2-(difluoromethyl)-5-(4-((4-phenyl-1H-1,2,3-triazol-1-yl)methyl)phenyl)-1,3,4-oxadiazole]: the IC50 at hHDAC6 (setting [1]) was 85.3 nM; at hHDAC6 (selectivity table) it was 85.3 nM; at hHDAC1, greater than 10000 nM; at hHDAC10, greater than 10000 nM; on hHDAC4 it was greater than 10000 nM; on hHDAC9, greater than 10000 nM. The IC50 on hHDAC8, on hHDAC7, at hHDAC3, on hHDAC2 and at hHDAC5 was greater than 10000 nM throughout.
Regarding `FC(F)c1nnc(-c2ccc(Cn3nnc(-c4cccc(Cl)c4)c3Cl)nc2)o1` [Example 54, 2-(6-((5-chloro-4-(3-chlorophenyl)-1H-1,2,3-triazol-1-yl)methyl)pyridin-3-yl)-5-(difluoromethyl)-1,3,4-oxadiazole], the IC50 is 34.1 nM on hHDAC6 (setting [1]); 34.1 nM at hHDAC6 (selectivity table); greater than 10000 nM on hHDAC1; greater than 10000 nM at hHDAC10; 1490 nM on hHDAC4; 2610 nM on hHDAC9. Further, the concentration for half-maximal inhibition (IC50) on hHDAC8 was greater than 10000 nM; on hHDAC7, 1400 nM; on hHDAC3, greater than 10000 nM; at hHDAC2, greater than 10000 nM; at hHDAC5, greater than 10000 nM.
Consider `FC(F)c1nnc(-c2ccc(Cn3nnc4cc(Cl)c(Cl)cc43)nc2)o1` [Example 24, 2-(6-((5,6-dichloro-1H-benzo[d][1,2,3]triazol-1-yl)methyl)pyridin-3-yl)-5-(difluoromethyl)-1,3,4-oxadiazole], for which the IC50 on hHDAC6 (setting [1]) is 29.5 nM; at hHDAC6 (selectivity table), 29.5 nM; on hHDAC1, greater than 10000 nM; at hHDAC10 it was greater than 10000 nM; at hHDAC4, 8370 nM; on hHDAC9, 8620 nM. Further, the IC50 on hHDAC8, at hHDAC7, on hHDAC3, on hHDAC2 and at hHDAC5 was greater than 10000 nM each time.
`Fc1ccccc1-c1cn(Cc2ccc(-c3nnc(C(F)F)o3)cn2)nn1` [Example 48, 2-(difluoromethyl)-5-(6-((4-(2-fluorophenyl)-1H-1,2,3-triazol-1-yl)methyl)pyridin-3-yl)-1,3,4-oxadiazole]: the IC50 at hHDAC6 (setting [1]) is 24 nM; on hHDAC6 (selectivity table), 24 nM; at hHDAC1 it was greater than 10000 nM; at hHDAC10, greater than 10000 nM; on hHDAC4, greater than 10000 nM; on hHDAC9, greater than 10000 nM. Further, the IC50 on hHDAC8, on hHDAC7, on hHDAC3, on hHDAC2 and at hHDAC5 was greater than 10000 nM each time.
For the molecule `FC(F)c1nnc(-c2ccc(Cn3nc4cc(Cl)c(Cl)cc4n3)nc2)o1` [Example 25, 2-(6-((5,6-dichloro-2H-benzo[d][1,2,3]triazol-2-yl)methyl)pyridin-3-yl)-5-(difluoromethyl)-1,3,4-oxadiazole], the IC50 at hHDAC6 (setting [1]) was 29.8 nM; on hHDAC6 (selectivity table) it was 29.8 nM; at hHDAC1, greater than 10000 nM; at hHDAC10, greater than 10000 nM; at hHDAC4, greater than 10000 nM; at hHDAC9, greater than 10000 nM. Besides, the IC50 on hHDAC8, on hHDAC7, on hHDAC3, at hHDAC2 and on hHDAC5 was greater than 10000 nM throughout.
`FC(F)c1nnc(-c2ccc(Cn3cnc4cc(Cl)c(Cl)cc43)nc2)o1` [Example 22, 2-(6-((5,6-dichloro-1H-benzo[d]imidazol-1-yl)methyl)pyridin-3-yl)-5-(difluoromethyl)-1,3,4-oxadiazole]: the concentration for half-maximal inhibition (IC50) on hHDAC6 (setting [1]) was 22.4 nM; at hHDAC6 (selectivity table), 22.4 nM; at hHDAC1, greater than 10000 nM; on hHDAC10, greater than 10000 nM; at hHDAC4, 2400 nM; at hHDAC9 it was 6520 nM. For the same molecule, the IC50 on hHDAC8 was greater than 10000 nM; at hHDAC7, 9400 nM; on hHDAC3, greater than 10000 nM; at hHDAC2, greater than 10000 nM; at hHDAC5 it was greater than 10000 nM.
For the molecule `FC(F)c1nnc(-c2ccc(Cn3cc4ccccc4n3)cc2)o1` [Example 7, 2-(4-((2H-indazol-2-yl)methyl)phenyl)-5-(difluoromethyl)-1,3,4-oxadiazole], the half-maximal inhibitory concentration (IC50) at hHDAC6 (setting [1]) was 365 nM; on hHDAC6 (selectivity table), 365 nM; at hHDAC1, greater than 10000 nM; at hHDAC10, greater than 10000 nM; at hHDAC4 it was greater than 10000 nM; on hHDAC9, greater than 10000 nM. For the same molecule, the half-maximal inhibitory concentration (IC50) on hHDAC8, at hHDAC7, on hHDAC3, at hHDAC2 and at hHDAC5 was greater than 10000 nM throughout.
Take `FC(F)c1nnc(-c2ccc(Cn3nnc4ccccc43)cc2)o1` [Example 11, 2-(4-((1H-benzo[d][1,2,3]triazol-1-yl)methyl)phenyl)-5-(difluoromethyl)-1,3,4-oxadiazole]: the half-maximal inhibitory concentration (IC50) was 171 nM at hHDAC6 (setting [1]); 171 nM on hHDAC6 (selectivity table); greater than 10000 nM at hHDAC1; greater than 10000 nM on hHDAC10; greater than 10000 nM at hHDAC4; greater than 10000 nM on hHDAC9. The IC50 at hHDAC8, on hHDAC7, on hHDAC3, on hHDAC2 and on hHDAC5 was greater than 10000 nM each time.

The record behind these values is patent publication US12202823B2 (QUIMATRYX, S.L., priority 2019, dated 2025).
